According to PubChem BioAssay AID248 (DTP/NCI, 2004):
Where “and” joins values, the source holds several entries; their conditions need not be identical. Identical values can stand only once. Toxic doses and inconclusive results are not listed. Cut-off read from the data, not from the text of the source: active = T/C of 150% or more; inactive = T/C below 125%.

Test system: L1210 leukemia ip in BDF1 mice, survival T/C
Assay: NCI In Vivo Anticancer Drug Screen. Data for tumor model L1210 Leukemia (intraperitoneal) in B6D2F1 (BDF1) mice
Conditions: endpoint: mean survival time, higher = longer survival
Outline: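 Mice bearing the transplanted tumor received compound or vehicle. Survival of the treated group was divided by that of the vehicle-treated control group to give the ratio.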

[1] = dose: 100.0 mg/kg/injection, schedule: Q04DX003 (ip), vehicle: Klucel (hydroxypropylcellulose) (HPC)
[2] = dose: 200.0 mg/kg/injection, schedule: Q04DX003 (ip), vehicle: Klucel (hydroxypropylcellulose) (HPC)
[3] = dose: 400.0 mg/kg/injection, schedule: Q04DX003 (ip), vehicle: Klucel (hydroxypropylcellulose) (HPC)
[4] = dose: 25.0 mg/kg/injection, schedule: Q04DX002 (ip), vehicle: saline
[5] = dose: 50.0 mg/kg/injection, schedule: Q04DX002 (ip), vehicle: saline
[6] = dose: 100.0 mg/kg/injection, schedule: Q04DX002 (ip), vehicle: saline
[7] = dose: 100.0 mg/kg/injection, schedule: Q04DX003 (ip), vehicle: saline with Tween-80
[8] = dose: 200.0 mg/kg/injection, schedule: Q04DX003 (ip), vehicle: saline with Tween-80
[9] = dose: 400.0 mg/kg/injection, schedule: Q04DX003 (ip), vehicle: saline with Tween-80
[10] = dose: 25.0 mg/kg/injection, schedule: Q04DX003 (ip), vehicle: saline
[11] = dose: 50.0 mg/kg/injection, schedule: Q04DX003 (ip), vehicle: saline
[12] = dose: 100.0 mg/kg/injection, schedule: Q04DX003 (ip), vehicle: saline
[13] = dose: 200.0 mg/kg/injection, schedule: Q04DX003 (ip), vehicle: saline
[14] = dose: 400.0 mg/kg/injection, schedule: Q04DX003 (ip), vehicle: saline
[15] = dose: 100.0 mg/kg/injection, schedule: Q01DX009 (ip), vehicle: Klucel (hydroxypropylcellulose) (HPC)
[16] = dose: 200.0 mg/kg/injection, schedule: Q01DX009 (ip), vehicle: Klucel (hydroxypropylcellulose) (HPC)
[17] = dose: 400.0 mg/kg/injection, schedule: Q01DX009 (ip), vehicle: Klucel (hydroxypropylcellulose) (HPC)
[18] = dose: 100.0 mg/kg/injection, schedule: Q01DX001 (ip), vehicle: carboxymethylcellulose (CMC)
[19] = dose: 200.0 mg/kg/injection, schedule: Q01DX001 (ip), vehicle: carboxymethylcellulose (CMC)
[20] = dose: 400.0 mg/kg/injection, schedule: Q01DX001 (ip), vehicle: carboxymethylcellulose (CMC)
[21] = dose: 100.0 mg/kg/injection, schedule: Q01DX001 (ip), vehicle: saline
[22] = dose: 200.0 mg/kg/injection, schedule: Q01DX001 (ip), vehicle: saline
[23] = dose: 100.0 mg/kg/injection, schedule: Q01DX001 (ip), vehicle: Klucel (hydroxypropylcellulose) (HPC)
[24] = dose: 200.0 mg/kg/injection, schedule: Q01DX001 (ip), vehicle: Klucel (hydroxypropylcellulose) (HPC)
[25] = dose: 400.0 mg/kg/injection, schedule: Q01DX001 (ip), vehicle: Klucel (hydroxypropylcellulose) (HPC)

Measured: T/C

O=C(Nc1ccc2ccccc2c1)c1ccccc1
inactive: dose: 100.0 mg/kg/injection, schedule: Q01DX009 (ip), vehicle: saline sonified 104 % of control | [1] 97 % of control | dose: 200.0 mg/kg/injection, schedule: Q01DX009 (ip), vehicle: saline sonified 96 % of control | [2] 93 % of control | dose: 400.0 mg/kg/injection, schedule: Q01DX009 (ip), vehicle: saline sonified 93 % of control | [3] 92 % of control

COC1OC2COC(c3ccccc3)OC2C(OC(=S)SCc2ccccc2)C1OC(=O)c1ccccc1 (stereo unspecified)
inactive: [4] 100 % of control | [5] 88 % of control | [6] 98 % of control | dose: 200.0 mg/kg/injection, schedule: Q04DX002 (ip), vehicle: Klucel (hydroxypropylcellulose) (HPC) 86 % of control | dose: 400.0 mg/kg/injection, schedule: Q04DX002 (ip), vehicle: Klucel (hydroxypropylcellulose) (HPC) 90 % of control

CCCC(C)(O)C(=O)O (stereo unspecified)
inactive: [4] 100 % of control | [5] 103 % of control | [6] 95 % of control

O=[N+]([O-])c1ccc(N2CCOCC2)c2c1no[n+]2[O-]
inactive: dose: 12.5 mg/kg/injection, schedule: Q04DX003 (ip), vehicle: saline with Tween-80 108 % of control | dose: 25.0 mg/kg/injection, schedule: Q04DX003 (ip), vehicle: saline with Tween-80 118 % of control | dose: 50.0 mg/kg/injection, schedule: Q04DX003 (ip), vehicle: saline with Tween-80 116 % of control

CCCCN(CCCC)CC(O)c1cnc2c(Cl)cc(Cl)cc2c1Cl (stereo unspecified)
inactive: dose: 100.0 mg/kg/injection, schedule: Q01DX009 (ip), vehicle: saline with Tween-80 101 % of control | [7] 100 % of control | dose: 200.0 mg/kg/injection, schedule: Q01DX009 (ip), vehicle: saline with Tween-80 102 % of control | [8] 102 % of control | [9] 108 % of control

CC(C)NNC(=O)c1ccncc1
inactive: [10] 107 % of control | [11] 102 % of control | [12] 96 % of control | [13] 98 % of control | [14] 104 % of control

OC1CCCC2CCCNC12 (stereo unspecified) (tested in a mixture with another compound)
inactive: [15] 105 % of control | [1] 93 % of control | [16] 95 % of control | [2] 105 % of control | [17] 90 % of control | [3] 89 % of control

CC(=O)Nc1cccc(OCc2cccc([N+](=O)[O-])c2)c1
inactive: [18] 97 % of control | [19] 92 % of control | [20] 108 % of control

CS(=O)(=O)OCCN(CCO)c1cn(C(c2ccccc2)(c2ccccc2)c2ccccc2)c(=O)n(C(c2ccccc2)(c2ccccc2)c2ccccc2)c1=O
inactive: dose: 50.0 mg/kg/injection, schedule: Q01DX001 (ip), vehicle: saline 94 % of control | [21] 105 % of control | [22] 97 % of control | dose: 400.0 mg/kg/injection, schedule: Q01DX001 (ip), vehicle: saline 103 % of control

CC(C)(C)N(Cc1ccccc1)Cc1ccccc1
inactive: [7] 96 % of control | [8] 98 % of control | [9] 96 % of control

CCOC(=O)C(=O)c1c(C)[nH]c(C(=O)OCC)c1C
inactive: [10] 104 % of control | [11] 93 % of control | [23] 95 % of control | [12] 98 % of control | [24] 97 % of control | [25] 101 % of control

O=[N+]([O-])c1ccc2ccc3ccccc3c2c1
inactive: [18] 97 % of control | [19] 95 % of control | [20] 97 % of control

O=C(/C=C/c1cccc2ccccc12)c1cccc([N+](=O)[O-])c1
inactive: dose: 100.0 mg/kg/injection, schedule: Q04DX002 (ip), vehicle: gum acacia 88 % of control | dose: 200.0 mg/kg/injection, schedule: Q04DX002 (ip), vehicle: gum acacia 92 % of control | dose: 400.0 mg/kg/injection, schedule: Q04DX002 (ip), vehicle: gum acacia 96 % of control

Clc1ncn[nH]1
inactive: dose: 100.0 mg/kg/injection, schedule: Q04DX003 (ip), vehicle: saline sonified 101 % of control | dose: 200.0 mg/kg/injection, schedule: Q04DX003 (ip), vehicle: saline sonified 106 % of control | dose: 400.0 mg/kg/injection, schedule: Q04DX003 (ip), vehicle: saline sonified 100 % of control

O=S(=O)(c1ccc(NC(=S)Oc2ccccc2)cc1)c1ccc(NC(=S)Oc2ccccc2)cc1
inactive: [21] 104 % of control | [22] 104 % of control

O=C(ONC(=O)[C@@H]1CCCC[C@H]1C(=O)NOC(=O)c1ccccc1)c1ccccc1
inactive: dose: 50.0 mg/kg/injection, schedule: Q01DX001 (ip), vehicle: Klucel (hydroxypropylcellulose) (HPC) 97 % of control | dose: 50.0 mg/kg/injection, schedule: Q01DX009 (ip), vehicle: Klucel (hydroxypropylcellulose) (HPC) 92 % of control | [23] 97 % of control | [15] 92 % of control | [24] 97 % of control | [16] 103 % of control | [25] 96 % of control | [17] 97 % of control

N#CC(C#N)=C(C#N)C#N
inactive: dose: 3.13 mg/kg/injection, schedule: Q01DX009 (ip), vehicle: Klucel (hydroxypropylcellulose) (HPC) 95 % of control | dose: 6.25 mg/kg/injection, schedule: Q01DX009 (ip), vehicle: Klucel (hydroxypropylcellulose) (HPC) 91 % of control

Cc1ccc(S(=O)(=O)NC(=O)NCCCOC(C)C)cc1
inactive: [7] 98 % of control | [8] 94 % of control | [9] 96 % of control

NC(=O)C/C=C/CC(N)=O
inactive: [1] 102 % of control | [2] 102 % of control | [3] 102 % of control

NNC(=O)C1CC12CC2 (stereo unspecified)
inactive: [21] 106 % of control and 109 % of control | [22] 103 % of control

CC12CCC(CC1C(=O)O)C2 (stereo unspecified)
inactive: [7] 96 % of control | [8] 94 % of control | [9] 98 % of control

CCN(CC)Cc1nc2nc(Cl)c(Cl)nc2[nH]1
inactive: dose: 25.0 mg/kg/injection, schedule: Q01DX009 (ip), vehicle: saline with Tween-80 97 % of control | dose: 50.0 mg/kg/injection, schedule: Q01DX009 (ip), vehicle: saline with Tween-80 105 % of control | [7] 99 % of control

N#CS/C=C\C(N)=O
inactive: dose: 3.0 mg/kg/injection, schedule: Q01DX009 (ip), vehicle: Klucel (hydroxypropylcellulose) (HPC) 94 % of control | dose: 6.0 mg/kg/injection, schedule: Q01DX009 (ip), vehicle: Klucel (hydroxypropylcellulose) (HPC) 108 % of control | dose: 12.0 mg/kg/injection, schedule: Q01DX009 (ip), vehicle: Klucel (hydroxypropylcellulose) (HPC) 106 % of control | dose: 12.5 mg/kg/injection, schedule: Q01DX009 (ip), vehicle: Klucel (hydroxypropylcellulose) (HPC) 104 % of control | dose: 12.5 mg/kg/injection, schedule: Q04DX003 (ip), vehicle: Klucel (hydroxypropylcellulose) (HPC) 90 % of control

CSCCC(NCc1cc(=O)[nH]c(=O)[nH]1)C(=O)O (stereo unspecified)
inactive: [12] 97 % of control | [13] 101 % of control | [14] 95 % of control

NNC(=O)CNc1ccccc1F
inactive: dose: 25.0 mg/kg/injection, schedule: Q04DX002 (ip), vehicle: Klucel (hydroxypropylcellulose) (HPC) 113 % of control | dose: 50.0 mg/kg/injection, schedule: Q04DX002 (ip), vehicle: Klucel (hydroxypropylcellulose) (HPC) 102 % of control | dose: 100.0 mg/kg/injection, schedule: Q04DX002 (ip), vehicle: Klucel (hydroxypropylcellulose) (HPC) 102 % of control and 105 % of control

O=C(O)c1cc2ccc(O)cc2oc1=O
inactive: [18] 94 % of control | [19] 94 % of control | [20] 97 % of control

CC(=O)N(c1ccccc1)c1nc(/C=N\NC(N)=S)cs1
inactive: [15] 105 % of control | [16] 106 % of control | [17] 100 % of control
